The record followed here is patent publication US8440710B2, “HSL inhibitors useful in the treatment of diabetes” (Hoffmann-La Roche Inc., priority 2009, dated 2013).

This test addresses T1, human HSL (Homo sapiens, UniProt Q05469).
T1 construct: generate a full length human HSL ORF with a 3′-His6 tag; made in house; host or cells: High 5 insect cells (baculovirus, pFast-BAC)
T1 sequence (Q05469 1-1076): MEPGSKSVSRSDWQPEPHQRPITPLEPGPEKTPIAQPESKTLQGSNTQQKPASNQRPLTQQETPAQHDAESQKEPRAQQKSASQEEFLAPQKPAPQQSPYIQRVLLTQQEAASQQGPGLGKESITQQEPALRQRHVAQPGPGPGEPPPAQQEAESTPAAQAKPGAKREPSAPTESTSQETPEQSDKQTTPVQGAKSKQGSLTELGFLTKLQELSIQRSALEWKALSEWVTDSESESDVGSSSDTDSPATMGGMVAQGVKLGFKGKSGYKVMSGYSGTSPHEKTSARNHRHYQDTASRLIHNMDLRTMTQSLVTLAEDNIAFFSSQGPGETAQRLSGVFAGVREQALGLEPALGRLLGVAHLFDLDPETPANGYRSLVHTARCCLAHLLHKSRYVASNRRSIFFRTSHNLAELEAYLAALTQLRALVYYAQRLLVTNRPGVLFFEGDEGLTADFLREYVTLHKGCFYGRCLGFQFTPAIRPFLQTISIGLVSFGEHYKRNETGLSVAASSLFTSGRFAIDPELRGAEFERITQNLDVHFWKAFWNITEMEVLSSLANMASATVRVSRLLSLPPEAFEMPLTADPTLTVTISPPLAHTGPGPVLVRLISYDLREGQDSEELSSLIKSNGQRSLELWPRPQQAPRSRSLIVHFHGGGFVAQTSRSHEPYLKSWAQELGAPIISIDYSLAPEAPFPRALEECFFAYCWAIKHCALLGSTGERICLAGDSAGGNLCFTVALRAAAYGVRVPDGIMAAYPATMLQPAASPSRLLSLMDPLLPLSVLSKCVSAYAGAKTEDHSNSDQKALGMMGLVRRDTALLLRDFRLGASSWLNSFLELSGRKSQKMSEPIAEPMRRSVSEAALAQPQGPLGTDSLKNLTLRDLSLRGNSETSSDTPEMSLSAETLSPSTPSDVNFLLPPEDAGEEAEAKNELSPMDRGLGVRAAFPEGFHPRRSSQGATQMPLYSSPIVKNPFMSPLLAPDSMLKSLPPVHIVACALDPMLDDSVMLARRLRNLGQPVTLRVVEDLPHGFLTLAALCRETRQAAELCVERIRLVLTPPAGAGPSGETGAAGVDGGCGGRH
Briefly: Human Hormone-Sensitive Lipase (HSL) enzyme inhibition assay (colorimetric, DMPT substrate). Conditions: human full length HSL-His6, 2,3-dimercapto-1-propanol tributyrate substrate, 37° C. 20 minutes, absorbance at 405 nm; read-out: HSL hum IC50. It counts as biochemical. Summed up: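 Full-length human HSL with C-terminal His6, expressed in baculovirus-infected High 5 cells and Ni-NTA purified, was added (15 ug/ml stock) to 1.5 mM DMPT in 100 mM MOPS pH 7.2, 0.2 mg/ml fatty acid-free BSA containing compound. After 20 min at 37 °C, DTNB with SDS/Triton X-100 was added; A405 read after 15 min at RT.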

For orientation: IC50 means the concentration that gives 50% inhibition. With `O=C1N(c2ccc(OCC(F)(F)F)cc2)CC[C@]12CC[C@@](O)(COc1ccccc1)CC2` [Example 240, (5α,8α)-8-Hydroxy-8-phenoxymethyl-2-[4-(2,2,2-trifluoro-ethoxy)-phenyl]-2-aza-spiro[4.5]decan-1-one], the IC50 was determined as 20 nM.

In the case of `O=C1N(c2ccc(OCC(F)(F)F)cc2)CC[C@]12CC[C@](O)(COCc1ccccc1)CC2` [Example 241, (5α,8β)-8-Benzyloxymethyl-8-hydroxy-2-[4-(2,2,2-trifluoro-ethoxy)-phenyl]-2-aza-spiro[4.5]decan-1-one], the IC50 came out at 90 nM.

In the case of `O=C1N(c2ccc(OCC(F)(F)F)cc2)CC[C@]12CC[C@@](O)(COCc1ccccc1)CC2` [Example 242, (5α,8α)-8-Benzyloxymethyl-8-hydroxy-2-[4-(2,2,2-trifluoro-ethoxy)-phenyl]-2-aza-spiro[4.5]decan-1-one], the IC50 is 10 nM.

On to `O=C1N(c2ccc(OCC(F)(F)F)cc2)CC[C@]12CC[C@](O)(COCC(F)F)CC2` [Example 243, (5α,8β)-8-(2,2-Difluoro-ethoxymethyl)-8-hydroxy-2-[4-(2,2,2-trifluoro-ethoxy)-phenyl]-2-aza-spiro[4.5]decan-1-one], for which the IC50 amounted to 300 nM.

With `O=C1N(c2ccc(OCC(F)(F)F)cc2)CC[C@]12CC[C@@](O)(COCC(F)F)CC2` [Example 244, (5α,8α)-8-(2,2-Difluoro-ethoxymethyl)-8-hydroxy-2-[4-(2,2,2-trifluoro-ethoxy)-phenyl]-2-aza-spiro[4.5]decan-1-one], the IC50 stood at 30 nM.

Take `CC(C)COC[C@]1(O)CC[C@@]2(CCN(c3ccc(OCC(F)(F)F)cc3)C2=O)CC1` [Example 245, (5α,8β)-8-Hydroxy-8-isobutoxymethyl-2-[4-(2,2,2-trifluoro-ethoxy)-phenyl]-2-aza-spiro[4.5]decan-1-one]: the IC50 came to 280 nM.

On to `CC(C)COC[C@]1(O)CC[C@]2(CCN(c3ccc(OCC(F)(F)F)cc3)C2=O)CC1` [Example 246, (5α,8α)-8-Hydroxy-8-isobutoxymethyl-2-[4-(2,2,2-trifluoro-ethoxy)-phenyl]-2-aza-spiro[4.5]decan-1-one], for which the IC50 came out at 640 nM.

On to `CCOC[C@]1(O)CC[C@]2(CCN(c3ccc(OCC(F)(F)F)nc3)C2=O)CC1` [Example 247, (5α,8α)-8-Ethoxymethyl-8-hydroxy-2-[6-(2,2,2-trifluoro-ethoxy)-pyridin-3-yl]-2-aza-spiro[4.5]decan-1-one], for which the 50% inhibitory concentration (IC50) stood at 70 nM.

As to `CCOC[C@]1(O)CC[C@@]2(CCN(c3ccc(O[C@@H](C)C(F)(F)F)nc3)C2=O)CC1` [Example 248, (5α,8β)-8-Ethoxymethyl-8-hydroxy-2-[6-((S)-2,2,2-trifluoro-1-methyl-ethoxy)-pyridin-3-yl]-2-aza-spiro[4.5]decan-1-one], the IC50 stood at 340 nM.

For `CCOC[C@]1(O)CC[C@]2(CCN(c3ccc(O[C@@H](C)C(F)(F)F)nc3)C2=O)CC1` [Example 249, (5α,8α)-8-Ethoxymethyl-8-hydroxy-2-[6-((S)-2,2,2-trifluoro-1-methyl-ethoxy)-pyridin-3-yl]-2-aza-spiro[4.5]decan-1-one], the IC50 was found to be 20 nM.

`CCOC[C@]1(O)CC[C@@]2(CCN(c3ccc(O[C@@H](C)C(F)(F)F)cc3)C2=O)CC1` [Example 250, (5α,8β)-8-Ethoxymethyl-8-hydroxy-2-[4-((S)-2,2,2-trifluoro-1-methyl-ethoxy)-phenyl]-2-aza-spiro[4.5]decan-1-one]: the IC50 is 600 nM.

Take `CCOC[C@]1(O)CC[C@]2(CCN(c3ccc(O[C@@H](C)C(F)(F)F)cc3)C2=O)CC1` [Example 251, (5α,8α)-8-Ethoxymethyl-8-hydroxy-2-[4-((S)-2,2,2-trifluoro-1-methyl-ethoxy)-phenyl]-2-aza-spiro[4.5]decan-1-one]: the IC50 amounted to 10 nM.

`CCOC[C@]1(O)CC[C@@]2(CCN(c3ccc(O[C@H](C)C(F)(F)F)cc3)C2=O)CC1` [Example 252, (5α,8β)-8-Ethoxymethyl-8-hydroxy-2-[4-((R)-2,2,2-trifluoro-1-methyl-ethoxy)-phenyl]-2-aza-spiro[4.5]decan-1-one]: the IC50 was found to be 230 nM.

For the molecule `CCOC[C@]1(O)CC[C@]2(CCN(c3ccc(O[C@H](C)C(F)(F)F)cc3)C2=O)CC1` [Example 253, (5α,8α)-8-Ethoxymethyl-8-hydroxy-2-[4-((R)-2,2,2-trifluoro-1-methyl-ethoxy)-phenyl]-2-aza-spiro[4.5]decan-1-one], the IC50 was 20 nM.

As to `O=C1N(c2ccc(OCC(F)(F)F)cc2)CC[C@]12CC[C@](O)(COCC1CCC1)CC2` [Example 254, (5α,8β)-8-[(Cyclobutylmethoxy)methyl]-8-hydroxy-2-[4-(2,2,2-trifluoro-ethoxy)-phenyl]-2-aza-spiro[4.5]decan-1-one], the IC50 was 410 nM.

In the case of `O=C1N(c2ccc(OCC(F)(F)F)cc2)CC[C@]12CC[C@@](O)(COCC1CCC1)CC2` [Example 255, (5α,8α)-8-[(Cyclobutylmethoxy)methyl]-8-hydroxy-2-[4-(2,2,2-trifluoro-ethoxy)-phenyl]-2-aza-spiro[4.5]decan-1-one], the IC50 is 10 nM.

`O=C1N(c2ccc(OCC(F)(F)F)cc2)CC[C@]12CC[C@](O)(COCC1CC1)CC2` [Example 256, (5α,8β)-8-[(Cyclopropylmethoxy)methyl]-8-hydroxy-2-[4-(2,2,2-trifluoro-ethoxy)-phenyl]-2-aza-spiro[4.5]decan-1-one]: the IC50 came to 690 nM.

Regarding `O=C1N(c2ccc(OCC(F)(F)F)cc2)CC[C@]12CC[C@@](O)(COCC1CC1)CC2` [Example 257, (5α,8α)-8-[(Cyclopropylmethoxy)methyl]-8-hydroxy-2-[4-(2,2,2-trifluoro-ethoxy)-phenyl]-2-aza-spiro[4.5]decan-1-one], the IC50 came out at 10 nM.

In the case of `COC[C@]1(O)CC[C@]2(CCN(c3ccc(OCC(F)(F)F)cc3)C2=O)CC1` [Example 258, (5α,8α)-8-Hydroxy-8-methoxymethyl-2-[4-(2,2,2-trifluoro-ethoxy)-phenyl]-2-aza-spiro[4.5]decan-1-one], the IC50 amounted to 70 nM.

Consider `O=C1N(c2ccc(OCC(F)(F)F)cc2)CC[C@]12CC[C@@](O)(COCC1CCO1)CC2` (stereo partly drawn) [Example 259, (5α,8α)-8-Hydroxy-8-(oxetan-2-ylmethoxymethyl)-2-[4-(2,2,2-trifluoro-ethoxy)-phenyl]-2-aza-spiro[4.5]decan-1-one], for which the IC50 came to 80 nM.

Regarding `CC1(COC[C@]2(O)CC[C@]3(CCN(c4ccc(OCC(F)(F)F)cc4)C3=O)CC2)COC1` [Example 260, (5α,8α)-8-Hydroxy-8-(3-methyl-oxetan-3-ylmethoxymethyl)-2-[4-(2,2,2-trifluoro-ethoxy)-phenyl]-2-aza-spiro[4.5]decan-1-one], the IC50 worked out at 60 nM.

`CCSC[C@]1(O)CC[C@]2(CCN(c3ccc(OCC(F)(F)F)cc3)C2=O)CC1` [Example 261, (5α,8α)-8-Ethylsulfanylmethyl-8-hydroxy-2-[4-(2,2,2-trifluoro-ethoxy)-phenyl]-2-aza-spiro[4.5]decan-1-one]: the IC50 was found to be 10 nM.

With `O=C1N(c2ccc(OCC(F)(F)F)cc2)CC[C@]12CC[C@@](O)(COc1cccc(F)c1)CC2` [Example 262, (5α,8α)-8-(3-Fluoro-phenoxymethyl)-8-hydroxy-2-[4-(2,2,2-trifluoro-ethoxy)-phenyl]-2-aza-spiro[4.5]decan-1-one], the IC50 is 70 nM.

Regarding `O=C1N(c2ccc(OCC(F)(F)F)cc2)CC[C@]12CC[C@@](O)(COc1ccc(F)cc1)CC2` [Example 263, (5α,8α)-8-(4-Fluoro-phenoxymethyl)-8-hydroxy-2-[4-(2,2,2-trifluoro-ethoxy)-phenyl]-2-aza-spiro[4.5]decan-1-one], the IC50 amounted to 20 nM.

For `CCc1ccc(N2CC[C@]3(CC[C@](O)(COCC(F)F)CC3)C2=O)cc1` [Example 264, (5α,8β)-8-(2,2-Difluoro-ethoxymethyl)-2-(4-ethyl-phenyl)-8-hydroxy-2-aza-spiro[4.5]decan-1-one], the IC50 stood at 200 nM.

Take `CCc1ccc(N2CC[C@]3(CC[C@@](O)(COCC(F)F)CC3)C2=O)cc1` [Example 265, (5α,8α)-8-(2,2-Difluoro-ethoxymethyl)-2-(4-ethyl-phenyl)-8-hydroxy-2-aza-spiro[4.5]decan-1-one]: the IC50 was found to be 40 nM.
